The subject of one test is native tau aggregates. Briefly: TAU radioligand in vitro displacement assay ([^3H]T808, autoradiography). Format: binding. Particulars: human AD brain sections; radioligand [^3H]T808 10 nM; cold compound 10 nM; 50 mM Tris pH 7.4, room temperature, 30 min. As to the method: FIG. 3 represents data from the TAU radioligand in vitro displacement assay described below. This in vitro binding assay assesses the affinity of compounds for native tau aggregates. The compounds are co-incubated with the well-established tau specific radioligand [^3H]T808 and the compound's displacement potency of [^3H]T808 binding is determined by in vitro autoradiography using human Alzheimer's disease (AD) brain sections.
This in vitro binding assay assesses the affinity of compounds for native tau aggregates. The compounds are co-incubated with the well-established tau specific radioligand [^3H]T808 and the compound's displacement potency of [^3H]T808 binding is determined by in vitro autoradiography using human Alzheimer's disease (AD) brain sections (see FIG. 3).
AD human brains are purchased from Banner Sun Health Research Institute (Sun City, Ariz., USA). Pathological diagnosis of AD is made according to standard NIA-Reagan Institute criteria based on neuropathological data. The radioligand [^3H]T808 was synthesized in-house ([^3H]-2-[4-(2-Fluoro-ethyl)-piperidin-1-yl]-benzo[4,5]imidazo[1,2-a]pyrimidine, radiochemical purity 99.0%). As a reference cold T808 is used (2-[4-(2-Fluoro-ethyl)-piperidin-1-yl]-benzo[4,5]imidazo[1,2-a]pyrimidine). For the autoradiography FujiFilm Imaging Plates (BAS-IP TR 2025) are exposed to the sections and read with a FujiFilm IP reader (BAS-5000).
Ten μm thick human AD brain sections are generated with a cryostat (Leica CM3050) at −17° C. chamber temperature and −15° C. object temperature. Sections are transferred to Histobond+ microscope slides (Marienfeld Laboratory Glasware). After drying for 3 hours at room temperature the sections are stored at −20° C. The sections are incubated with the radioligand (10 nM) and the respective cold compound (at various concentrations) in 50 mM Tris buffer, pH 7.4 at room temperature for 30 min. After washing 3×10 min at 4° C. in 50 mM Tris buffer, pH 7.4 and 3 quick dips in H2O dist. at 4° C. the sections are dried at 4° C. for 3 h. The sections are placed in a FujiFilm Cassette (BAS 2025), exposed with an Imaging Plate for five days and afterwards scanned with a resolution of […].
The signal intensity (Dens-PSL/mm2) in the region of interest (ROI) of the autoradiogram is quantified with the software MCID analysis (version 7.0, Imaging Research Inc.). The specific binding (SB) of [^3H]T808 binding in absence or in presence of a compound is calculated by subtracting the non-specific binding signal in the white matter, thus yielding SB[3H]T808 only and SBcompound. The % displacement by the various compounds is calculated as following: % displacement=100−(SBcompund/SB[3H]T808 only)*100. Validation Data
In each experiment cold T808 is used as a positive internal control. […]

The test system of a further test is tau aggregates. Nature of the test: Autoradiography of tritiated radioligands on human cortical AD brain sections. Particulars: Braak V staged AD patient. It is filed as binding. As to the method:
FIG. 1 is an autoradiogram of [^3H]-2-(4-methoxyphenyl)imidazo[1,2-a]pyridin-7-amine (example 5) incubated with human cortical brain sections obtained from a Braak V staged AD patient. The radioligand concentration was 2.6 nM.
FIG. 2 is an autoradiogram of [^3H]-2-[4-(2-fluoroethoxy)phenyl]imidazo[1,2-a]pyridin-7-amine (example 6) incubated with human cortical brain sections obtained from a Braak V staged AD patient. The radioligand concentration was 2.5 nM.
FIGS. 1 and 2 represent autoradiograms of respectively [[^3H]-2-(4-methoxyphenyl)imidazo[1,2-a]pyridin-7-amine (example 5) and [^3H]-2-[4-(2-fluoroethoxy)phenyl]imidazo[1,2-a]pyridin-7-amine (example 6) incubated with human cortical brain sections obtained from a Braak V staged AD patient. The radioligand concentrations were 2.6 and 2.5 nM, respectively.

Sequence of tau aggregates (P10636 623-695 limits assumed): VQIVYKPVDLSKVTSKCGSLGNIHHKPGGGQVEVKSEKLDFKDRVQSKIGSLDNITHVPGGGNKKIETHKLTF

Consider `COc1ccc(-c2cn3ccc(N)cc3n2)cc1` [Example 1, 2-(4-Methoxyphenyl)imidazo[1,2-a]pyridin-7-amine], for which the “% displacement of [^3H]T808 (10 nM) at 10 nM” value in the test on native tau aggregates turned out to be 67%.
On the same count and under the same terms, the figure for `Nc1ccn2cc(-c3ccc(OCF)cc3)nc2c1` [Example 2, 2-(4-(Fluoromethoxy)phenyl)imidazo[1,2-a]pyridin-7-amine] is 51%; for `Nc1ccn2cc(-c3ccc(OCCCF)cc3)nc2c1` [Example 3, 2-[4-(3-Fluoropropoxy)phenyl]imidazo[1,2-a]pyridin-7-amine] it is 25%.
As to `Nc1ccn2cc(-c3ccc(OCCF)cc3)nc2c1` [Example 4, 2-[4-(2-Fluoroethoxy)phenyl]imidazo[1,2-a]pyridin-7-amine], the “% displacement of [^3H]T808 (10 nM) at 10 nM” value with native tau aggregates is listed as 50%.
In the case of “[^3H]-2-(4-Methoxyphenyl)imidazo[1,2-a]pyridin-7-amine [Example 5]”, the autoradiogram staining pattern result with tau aggregates (radioligand concentration 2.6 nM (FIG. 1)) was “punctate staining of tau aggregates in a layered distribution pattern and a varying degree of non-specific binding in white matter”.
In the case of “[^3H]-2-[4-(2-Fluoroethoxy)phenyl]imidazo[1,2-a]pyridin-7-amine [Example 6]”, the autoradiogram staining pattern entry with tau aggregates (radioligand concentration 2.5 nM (FIG. 2)) was “punctate staining of tau aggregates in a layered distribution pattern and a varying degree of non-specific binding in white matter”.

The record behind these values is patent publication US9957266B2, “Imidazo[1,2-a]pyridin-7-amine” (Hoffmann-La Roche Inc., priority 2013, dated 2018).
